For orientation: Ki means a measure of affinity in units of concentration, obtained from inhibition or displacement.

The values that follow come from patent publication US5120641A (Daiichi Pure Chemicals Co., Ltd., priority 1989, dated 1992).

Entries after “also recorded” stand apart in the source; their conditions may differ. Like-named read-outs stand apart in the source and are kept apart here.

In assay [1] the target is T1, serotonin uptake sites ([^3 H]6-nitroquipazine binding, rat brain membranes) (Rattus norvegicus, UniProt P31652).
T1 construct: from tissue; host or cells: rat brain minus cerebellum, pons and medulla oblongata; washed membrane homogenate
T1 sequence (P31652 whole entry): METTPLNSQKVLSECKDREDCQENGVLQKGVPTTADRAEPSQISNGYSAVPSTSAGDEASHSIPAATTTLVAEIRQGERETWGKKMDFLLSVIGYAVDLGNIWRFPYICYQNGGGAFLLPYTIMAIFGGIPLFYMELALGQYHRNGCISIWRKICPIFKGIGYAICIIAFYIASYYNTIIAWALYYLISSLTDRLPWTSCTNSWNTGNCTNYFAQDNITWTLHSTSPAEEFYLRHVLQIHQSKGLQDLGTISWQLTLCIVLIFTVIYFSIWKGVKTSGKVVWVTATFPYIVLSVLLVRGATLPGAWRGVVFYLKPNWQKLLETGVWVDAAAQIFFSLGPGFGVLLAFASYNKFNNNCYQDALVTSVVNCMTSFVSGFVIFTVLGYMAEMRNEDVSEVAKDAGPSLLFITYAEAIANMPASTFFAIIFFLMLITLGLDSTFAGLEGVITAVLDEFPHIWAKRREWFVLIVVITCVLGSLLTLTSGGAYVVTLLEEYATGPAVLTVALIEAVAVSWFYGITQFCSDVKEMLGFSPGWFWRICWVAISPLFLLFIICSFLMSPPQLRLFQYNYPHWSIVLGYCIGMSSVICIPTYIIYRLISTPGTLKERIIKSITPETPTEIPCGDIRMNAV
The assay is described as follows: Inhibition of [^3 H]6-nitroquipazine binding by several drugs. The method, then:
(§1) Rats were killed by decapitation and the brains (minus cerebellum, pons medulla and oblongata) were rapidly removed. The brain tissue was homogenized in 50 volumes of ice-cold buffer (50 mM Tris-HCl, 120 mM NaCl, 5 mM KCl, pH 7.4) with a Kinematica Polytron homogenizer at setting 5 for 30 seconds. The homogenate was centrifuged at 48,000×g for 10 minutes. The resulting pellet was resuspended in 50 volumes of ice-cold buffer and recentrifuged. The final pellet was resuspended in the same 50 volumes of buffer.
(§2) Aliquots of membrane suspension were incubated with [^3 H]6-nitroquipazine (30-1,200 pM) at 22° C. for 2 hours for the equilibrium saturation. After the addition of 4 ml of ice-cold buffer the homogenates were rapidly filtered through Whatman GF/C filters pretreated with 0.05% polyethleneimine. The filters were washed with ice-cold buffer (3×5 ml). The radioactivity trapped by the filters was determined by a liquid scintillation counter.
Ten different concentrations of the drugs were used for each determination. Aliquots of membrane suspension were incubated with [^3 H]6-nitroquipazine at 22° C. for 2 hours. The specific binding of [^3 H]6-nitroquipazine was determined as described in Example 2.
Drug IC50 values were defined by means of the iterative non-linear least-squares method.

Assay [2] deals with T2, serotonin uptake sites (rat brain membranes) (Rattus norvegicus, UniProt P31652).
T2 construct: from tissue; host or cells: rat brain minus cerebellum, pons and medulla oblongata; washed membrane homogenate
T2 sequence (P31652 whole entry): as above
The assay is described as follows: [^3 H]6-Nitroquipazine saturation binding to rat brain membranes (Scatchard analysis). The protocol: as §1, §2

Assay [3] has as its target T3, serotonin uptake sites (rat cerebral cortical membranes) (Rattus norvegicus, UniProt P31652).
T3 construct: The cerebral cortex of rat brain was rapidly dissected; from tissue; host or cells: rat cerebral cortex membranes (p-chloroamphetamine-treated rats)
The assay is described as follows: [^3 H]6-nitroquipazine binding to cerebral cortical membranes after serotonin neuronal lesions with p-chloroamphetamine. Conditions: for Bmax / Kd: cerebral cortex, mean ± S.E.M. The protocol: as §2
(§3) Rats were injected i.p. three times (24 hours interval) with p-chloroamphetamine (2.5 mg/kg), and were decapitated 7 days after final injection. The cerebral cortex of rat brain was rapidly dissected, and [^3 H]6-nitroquipazine binding to cerebral cortical membranes was examined as described previously.

The target in assay [4] is serotonin uptake sites (rat brain regions) (Rattus norvegicus, UniProt P31652). The assay is described as follows: Regional distribution of [^3 H]6-nitroquipazine binding in rat brain. The protocol: as §2
Chain of serotonin uptake sites (rat brain regions) (P31652 whole entry): as above
Rats were killed by decapitation and the brains were dissected (cerebral cortex, striatum, hippocampus, hypothalamus, midbrain, cerebellum, pons medulla and oblongata) on ice. [^3 H]6-Nitroquipazine binding was estimated as described previously.

The test system of assay [5] is rat cerebral cortex. The assay is described as follows: Serotonin and 5-hydroxyindoleacetic acid content in cerebral cortex of p-chloroamphetamine lesioned rats. It counts as in vivo. The protocol:
as §3

The mark [6] stands for this setting: […] [^3 H]6-nitroquipazine, 22° C., 2 hours.

T3 sequence (P31652 whole entry): as above

`O=[N+]([O-])c1ccc2nc(N3CCNCC3)ccc2c1` [6-Nitroquipazine, 6-nitro-2-piperazinylquinoline]: the “Ki” value in assay [1] (setting [6]) is “low nanomolar ranges”; in assay [1] (read-out: Ki), 128 pM.

In the case of `c1ccc2c(CCC3CCNCC3)c[nH]c2c1` [Indalpine], the figures for the “Ki” value in assay [1] (setting [6]) and in assay [1] (read-out: Ki) were “low nanomolar ranges” and 1930 pM, respectively.

Take `O=[N+]([O-])c1ccc2nc(N3CCNCC3)ccc2c1` [[^3 H]6-nitroquipazine, Tritium-labeled 6-nitro-2-piperazinylquinoline]: the “binding to rat brain membranes” value in assay [2] (FIG. 1) is “bound with high affinity to rat brain membranes in a saturable and reversible fashion”. The “specific binding as share of total binding” value in assay [2] (at equilibrium, 110 pM [^3 H]6-nitroquipazine, non-specific: 1 μM paroxetine) was found to be 95%. Also, the “potency compared with [^3 H]imipramine and [^3 H]paroxetine” value in assay [2] (no comparative data given) is “more potent than [^3 H]imipramine and [^3 H]paroxetine”. Also, the Kd in assay [2] (rat brain membranes, 22° C., 2 hours, 30-1,200 pM radioligand, Scatchard analysis, read-out: apparent equilibrium dissociation constant (Kd)) was found to be 93 pM; in assay [3] (control rats), 141 pM; in assay [3] (rats treated with p-chloroamphetamine (2.5 mg/kg i.p. x3), *P < 0.01 vs control), 108 ± 10 pM. In addition, the “maximal number of binding sites (Bmax)” value in assay [2] (rat brain membranes, 22° C., 2 hours, Scatchard analysis) is 832 fmol/mg protein. For the same compound, the Bmax in assay [3] (control rats) came to 616.0 ± 64.4 fmole/mg protein; in assay [3] (rats treated with p-chloroamphetamine (2.5 mg/kg i.p. x3), ***P < 0.001 vs control) it was 170.5 ± 44.8 fmole/mg protein; in assay [4] (Cerebellum), 91.2 ± 4.0 fmole/mg protein; in assay [4] (Cortex) it was 565.6 ± 28.3 fmole/mg protein; in assay [4] (Hippocampus) it was 612.2 ± 35.4 fmole/mg protein; in assay [4] (Hypothalamus) it was 1211.8 ± 33.2 fmole/mg protein. For the same compound, the results for the Bmax in assay [4] (Medulla oblongata), in assay [4] (Midbrain) and in assay [4] (Striatum) were 598.2 ± 25.6 fmole/mg protein, 1107.8 ± 30.2 fmole/mg protein and 807.4 ± 41.5 fmole/mg protein, respectively. Besides, the “specific binding by brain region” value in assay [4] (rat brain regions) is “highest in the hypothalamus and midbrain; also recorded: moderately high in the striatum, hippocampus, medulla oblongata and cerebral cortex; also recorded: lowest in the cerebellum”.

As to `CC(N)Cc1ccc(Cl)cc1` (centres unmarked) [p-chloroamphetamine], the “decrease of [^3 H]6-nitroquipazine binding to cortical membranes of lesioned rats compared to controls” value in assay [3] (p-chloroamphetamine 2.5 mg/kg i.p. three times, 7 days after final injection) is listed as 72%. Besides, in assay [3] (p-chloroamphetamine 2.5 mg/kg i.p. three times, compared to controls), the “Kd change in lesioned rats” value was “slightly decreased”. For the same compound, in assay [5] (destruction of serotonin neuron terminals by p-chloroamphetamine), the “endogenous serotonin levels and [^3 H]6-nitroquipazine binding” value is “decreases in endogenous serotonin levels and [^3 H]6-nitroquipazine binding”. Also, the “content of 5-hydroxyindoleacetic acid in the cerebral cortex” value in assay [5] (lesioned rats, p-chloroamphetamine 2.5 mg/kg i.p. three times, control 0.2123±0.038) is reported as 0.0541±0.008 ng/mg tissue. For the same compound, the “content of serotonin in the cerebral cortex” value in assay [5] (lesioned rats, p-chloroamphetamine 2.5 mg/kg i.p. three times, control 0.3362±0.037) is on record as 0.129±0.037 ng/mg tissue.
